Assay results reported in US10442848B2, “Oxyntomodulin derivatives and pharmaceutical composition for treating obesity comprising the same” (HANMI SCIENCE CO., LTD, priority 2011, dated 2019).

Legend:
human glucagon receptor = target: T1, human glucagon receptor (Homo sapiens, UniProt P47871); experiment: cAMP response in CHO cell line expressing human glucagon receptor; type: cell-based; conditions: read-out: EC50 CHO/GCGR
T1 construct: expressed in transfected cells; host or cells: CHO DG44
Protocol: The PCR product was cloned into the known animal cell expression vector x0GC/dhfr to prepare a recombinant vector x0GC/GCGR.
CHO DG44 cell line cultured in DMEM/F12 (10% FBS) medium was transfected with the recombinant vector x0GC/GCGR using LIPOFECTAMINE®, and cultured in a selection medium containing 1 mg/mL G418 and 10 nM methotraxate.
The cultured cells were washed with KRB buffer and suspended in 40 ml of KRB buffer containing 1 mM IBMX, and left at room temperature for 5 minutes. […] Then, 20 mL of cell lysis buffer was added for cell lysis, and the cell lysates were applied to a cAMP assay kit (Molecular Device, USA) to measure cAMP concentrations. EC50 values were calculated therefrom, and compared to each other.

[1] = taken for 1 year; cited from earlier work

T1 sequence (P47871 26-477): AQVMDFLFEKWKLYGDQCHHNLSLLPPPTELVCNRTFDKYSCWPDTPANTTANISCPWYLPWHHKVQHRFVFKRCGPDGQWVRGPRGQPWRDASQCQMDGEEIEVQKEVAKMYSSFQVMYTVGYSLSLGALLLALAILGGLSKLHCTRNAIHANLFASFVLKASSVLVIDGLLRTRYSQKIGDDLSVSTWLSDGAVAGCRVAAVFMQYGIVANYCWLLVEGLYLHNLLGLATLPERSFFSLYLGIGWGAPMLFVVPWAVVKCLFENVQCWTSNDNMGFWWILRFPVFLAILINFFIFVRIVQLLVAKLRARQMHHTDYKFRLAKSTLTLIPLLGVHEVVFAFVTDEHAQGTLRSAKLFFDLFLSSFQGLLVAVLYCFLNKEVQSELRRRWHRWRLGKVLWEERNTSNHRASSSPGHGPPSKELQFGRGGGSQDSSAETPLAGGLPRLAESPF

Row | EC50 (human glucagon receptor) | Compound | weight loss [1]
1 | 6.95 nM | CSCC[C@H](NC(=O)[C@H](CC(C)C)NC(=O)[C@H](Cc1c[nH]c2ccccc12)NC(=O)[C@H](CCC(N)=O)NC(=O)[C@@H](NC(=O)[C@H](Cc1ccccc1)NC(=O)[C@H](CCC(=O)O)NC(=O)[C@H](CCCCN)NC(=O)[C@H](C)NC(=O)[C@H](CCCNC(=N)N)NC(=O)[C@H](CCCCN)NC(=O)[C@H](CCC(=O)O)NC(=O)[C@H](CC(=O)O)NC(=O)[C@H](CC(C)C)NC(=O)[C@H](Cc1ccc(O)cc1)NC(=O)[C@H](CCCCN)NC(=O)[C@H](CO)NC(=O)[C@H](Cc1ccc(O)cc1)NC(=O)[C@H](CC(=O)O)NC(=O)[C@H](CO)NC(=O)[C@@H](NC(=O)[C@H](Cc1ccccc1)NC(=O)[C@@H](NC(=O)CNC(=O)[C@H](CCC(N)=O)NC(=O)C(C)(C)NC(=O)[C@@H](N)Cc1c[nH]cn1)[C@@H](C)O)[C@@H](C)O)C(C)C)C(=O)N[C@@H](CC(N)=O)C(=O)N[C@H](C(=O)N[C@@H](CS)C(=O)O)[C@@H](C)O [SEQ ID NO. 24] | 
2 | 1.3 nM | CSCC[C@H](NC(=O)[C@H](CC(C)C)NC(=O)[C@H](Cc1c[nH]c2ccccc12)NC(=O)[C@H](CCC(N)=O)NC(=O)[C@@H](NC(=O)[C@H](Cc1ccccc1)NC(=O)[C@H](CCC(=O)O)NC(=O)[C@@H]1CCCCNC(=O)CC[C@H](NC(=O)[C@H](CC(=O)O)NC(=O)[C@H](CC(C)C)NC(=O)[C@H](Cc2ccc(O)cc2)NC(=O)[C@H](CCCCN)NC(=O)[C@H](CO)NC(=O)[C@H](Cc2ccc(O)cc2)NC(=O)[C@H](CC(=O)O)NC(=O)[C@H](CO)NC(=O)[C@@H](NC(=O)[C@H](Cc2ccccc2)NC(=O)[C@@H](NC(=O)CNC(=O)[C@H](CCC(N)=O)NC(=O)C(C)(C)NC(=O)[C@@H](N)Cc2c[nH]cn2)[C@@H](C)O)[C@@H](C)O)C(=O)N[C@@H](CCCCN)C(=O)N[C@@H](CCCNC(=N)N)C(=O)N[C@@H](C)C(=O)N1)C(C)C)C(=O)N[C@@H](CC(N)=O)C(=O)N[C@H](C(=O)N[C@@H](CS)C(=O)O)[C@@H](C)O [SEQ ID NO. 25] | 
3 |  | CCCCCCCCCCC[C@@H](C[C@@H]1OC(=O)[C@H]1CCCCCC)OC(=O)[C@H](CC(C)C)NC=O [orlistat] | 4 kg
